From the CheMixHub viscosity set

Test: xn = mol fraction of the nth substance listed

CC12CC3CC(C)(C1)CC(C)(C3)C2 + CCCCCCCCO
viscosity [mPa·s], 100 kPa
Details | x1 = 0.1004 | x1 = 0.2017 | x1 = 0.3008 | x1 = 0.3998 | x1 = 0.5015 | x1 = 0.5993 | x1 = 0.7 | x1 = 0.7997 | x1 = 0.9005
293.15 K | 7.78 | 6.71 | 5.79 | 5 | 4.3 | 3.75 | 3.3 | 2.98 | 2.76
298.15 K | 6.54 | 5.65 | 4.9 | 4.25 | 3.71 | 3.28 | 2.93 | 2.66 | 2.47
303.15 K | 5.53 | 4.81 | 4.2 | 3.68 | 3.24 | 2.88 | 2.59 | 2.37 | 2.21
308.15 K | 4.72 | 4.14 | 3.64 | 3.22 | 2.85 | 2.55 | 2.31 | 2.13 | 2
313.15 K | 4.03 | 3.57 | 3.18 | 2.83 | 2.53 | 2.28 | 2.08 | 1.93 | 1.82
318.15 K | 3.49 | 3.12 | 2.79 | 2.5 | 2.24 | 2.03 | 1.86 | 1.73 | 1.65
323.15 K | 3.03 | 2.72 | 2.45 | 2.22 | 2 | 1.83 | 1.69 | 1.58 | 1.51

C1CCC2CCCCC2C1 (stereo unspecified) + CC(C)CC(C)(C)C
viscosity [mPa·s], 101 kPa
Details | x2 = 0.1031 | x2 = 0.1995 | x2 = 0.299 | x2 = 0.4001 | x2 = 0.5004 | x2 = 0.6002 | x2 = 0.6994 | x2 = 0.8002 | x2 = 0.899
293.15 K | 2.019 | 1.701 | 1.435 | 1.203 | 1.026 | 0.876 | 0.758 | 0.656 | 0.571
298.15 K | 1.842 | 1.561 | 1.323 | 1.114 | 0.955 | 0.818 | 0.711 | 0.62 | 0.54
303.15 K | 1.688 | 1.436 | 1.223 | 1.034 | 0.89 | 0.765 | 0.667 | 0.581 | 0.509
308.15 K | 1.553 | 1.327 | 1.135 | 0.963 | 0.831 | 0.717 | 0.627 | 0.547 | 0.482
313.15 K | 1.434 | 1.23 | 1.056 | 0.905 | 0.778 | 0.673 | 0.59 | 0.516 | 0.456
318.15 K | 1.328 | 1.142 | 0.983 | 0.838 | 0.727 | 0.63 | 0.552 | 0.483 | 0.425
323.15 K | 1.234 | 1.066 | 0.921 | 0.788 | 0.686 | 0.597 | 0.525 | 0.461 | 0.408

CCCCCCCC + CCO
298.15 K, 101.33 kPa
Details | viscosity [mPa·s]
x2 = 0.0986 | 0.523
x2 = 0.2153 | 0.533
x2 = 0.3204 | 0.557
x2 = 0.4431 | 0.603
x2 = 0.6117 | 0.686
x2 = 0.7378 | 0.779
x2 = 0.8362 | 0.873
x2 = 0.9134 | 0.973
x2 = 0.9773 | 1.071

CCOCCOCCO + O=C1CCCN1
298.15 K, 101 kPa
Details | viscosity [mPa·s]
x1 = 0.0021 | 14.17
x1 = 0.004 | 14.1
x1 = 0.0086 | 14
x1 = 0.0117 | 13.9
x1 = 0.0212 | 13.57
x1 = 0.0348 | 13.2
x1 = 0.0525 | 12.63
x1 = 0.0788 | 12.03
x1 = 0.108 | 11.37
x1 = 0.1478 | 10.61
x1 = 0.1914 | 9.859
x1 = 0.2318 | 9.217
x1 = 0.2798 | 8.602
x1 = 0.3222 | 8.116
x1 = 0.3673 | 7.637
x1 = 0.4326 | 7.009
x1 = 0.4635 | 6.788
x1 = 0.5199 | 6.331
x1 = 0.5639 | 6.038
x1 = 0.6088 | 5.76
x1 = 0.6756 | 5.37
x1 = 0.7363 | 5.074
x1 = 0.7879 | 4.842
x1 = 0.8388 | 4.665
x1 = 0.8795 | 4.494
x1 = 0.9249 | 4.308
x1 = 0.9572 | 4.175
x1 = 0.977 | 4.003
x2 = 0.0069 | 3.885

ClC(Cl)=C(Cl)Cl + CC#N
303.15 K, 101.32 kPa
Details | viscosity [mPa·s]
x2 = 0.1294 | 0.7489
x2 = 0.1929 | 0.7334
x2 = 0.3101 | 0.699
x2 = 0.4022 | 0.6632
x2 = 0.4671 | 0.631
x2 = 0.5673 | 0.5728
x2 = 0.6707 | 0.505
x2 = 0.7358 | 0.4619
x2 = 0.846 | 0.3947
x2 = 0.9295 | 0.3522

CCCCCCCCCCCCCC + CCCCOC(C)=O
298.15 K, 101.3 kPa
Details | viscosity [mPa·s]
x2 = 0.1284 | 1.825
x2 = 0.2404 | 1.622
x2 = 0.3362 | 1.467
x2 = 0.4227 | 1.339
x2 = 0.5018 | 1.23
x2 = 0.5367 | 1.183
x2 = 0.5715 | 1.142
x2 = 0.6959 | 0.9335
x2 = 0.8024 | 0.8736
x2 = 0.8903 | 0.7842
x2 = 0.948 | 0.7283

CCCCCO + O
viscosity [mPa·s], 101 kPa
Details | 298.15 K | 308.15 K | 318.15 K
x2 = 0.0288 | 3.509 | 2.654 | –
x2 = 0.029 | – | – | 2.055
x2 = 0.0453 | 3.487 | 2.638 | –
x2 = 0.066 | 3.468 | 2.62 | –
x2 = 0.0685 | – | – | 2.026
x2 = 0.0859 | 3.451 | 2.606 | –
x2 = 0.0914 | – | – | 2.016
x2 = 0.1012 | – | – | 2.006
x2 = 0.113 | 3.437 | 2.591 | –
x2 = 0.1301 | 3.431 | 2.585 | 1.997
x2 = 0.1472 | 3.429 | 2.579 | –
x2 = 0.149 | – | – | 1.991
x2 = 0.1655 | – | 2.577 | –
x2 = 0.1689 | 3.424 | – | 1.985
x2 = 0.1776 | 3.426 | 2.576 | –
x2 = 0.2023 | – | – | 1.98
x2 = 0.216 | 3.428 | 2.572 | –
x2 = 0.2419 | 3.438 | 2.575 | 1.979

CCCCCO + CO
298.15 K, 101.33 kPa
Details | viscosity [mPa·s]
x2 = 0.1748 | 2.71
x2 = 0.2198 | 2.528
x2 = 0.327 | 2.143
x2 = 0.4302 | 1.813
x2 = 0.5186 | 1.57
x2 = 0.5951 | 1.372
x2 = 0.652 | 1.236
x2 = 0.7911 | 0.932
x2 = 0.8761 | 0.77

CCCCCCCCCCCCCC + CCCC(C)O
viscosity [mPa·s], 101.33 kPa
Details | x1 = 0.0999 | x1 = 0.2002 | x1 = 0.3001 | x1 = 0.3987 | x1 = 0.5009 | x1 = 0.6004 | x1 = 0.6996 | x1 = 0.8014 | x1 = 0.9002
293.15 K | 2.923 | 2.557 | 2.314 | 2.191 | 2.117 | 2.1 | 2.114 | 2.141 | 2.177
303.15 K | 2.381 | 2.111 | 1.928 | 1.823 | 1.752 | 1.741 | 1.748 | 1.76 | 1.787
313.15 K | 1.742 | 1.58 | 1.476 | 1.41 | 1.391 | 1.392 | 1.41 | 1.441 | 1.472
323.15 K | 1.362 | 1.266 | 1.192 | 1.152 | 1.148 | 1.153 | 1.171 | 1.21 | 1.24

ClC(Cl)=C(Cl)Cl + c1ccncc1
298.15 K, 101 kPa
Details | viscosity [mPa·s]
x1 = 0.0296 | 0.8879
x1 = 0.1254 | 0.8794
x1 = 0.1862 | 0.875
x1 = 0.2246 | 0.8719
x1 = 0.2887 | 0.8657
x1 = 0.4448 | 0.8496
x1 = 0.5638 | 0.8411
x1 = 0.6271 | 0.837
x1 = 0.7214 | 0.8324
x1 = 0.842 | 0.8315
x1 = 0.9127 | 0.8331
x1 = 0.9559 | 0.8373

CCCCCO + CCCCCCCC
viscosity [mPa·s], 101 kPa
Details | 298.15 K | 318.15 K
x1 = 0.0618 | 0.537 | 0.426
x1 = 0.1297 | 0.57 | 0.449
x1 = 0.2063 | 0.617 | 0.484
x1 = 0.2744 | 0.671 | 0.517
x1 = 0.3509 | 0.749 | 0.57
x1 = 0.5159 | 1.007 | 0.72
x1 = 0.5831 | 1.166 | 0.813
x1 = 0.6979 | 1.536 | 1.025
x1 = 0.8127 | 2.072 | 1.298
x1 = 0.9043 | 2.694 | 1.611
x1 = 0.952 | 3.056 | 1.814

CN(C)C=O + CCCCO
Details | viscosity [mPa·s]
298.15 K, 101 kPa, x1 = 0.5035 | 1.381

ClC(Cl)=C(Cl)Cl + CCCCCC
303.15 K, 101 kPa
Details | viscosity [mPa·s]
x1 = 0.1642 | 0.358
x1 = 0.2468 | 0.388
x1 = 0.3358 | 0.432
x1 = 0.4336 | 0.471
x1 = 0.4782 | 0.494
x1 = 0.514 | 0.515
x1 = 0.6464 | 0.591
x1 = 0.7236 | 0.643
x1 = 0.8072 | 0.697
x1 = 0.9346 | 0.776

ClC(Cl)=C(Cl)Cl + C1COCCO1
303.15 K, 101.33 kPa
Details | viscosity [mPa·s]
x2 = 0.0711 | 0.8321
x2 = 0.1527 | 0.8661
x2 = 0.2465 | 0.8991
x2 = 0.3656 | 0.9331
x2 = 0.4126 | 0.9447
x2 = 0.5332 | 0.9725
x2 = 0.6532 | 0.9982
x2 = 0.7921 | 1.03
x2 = 0.8937 | 1.055
x2 = 0.9581 | 1.074

ClC(Cl)=C(Cl)Cl + CCCCCCC
303.15 K, 101 kPa
Details | viscosity [mPa·s]
x1 = 0.196 | 0.442
x1 = 0.3642 | 0.497
x1 = 0.4421 | 0.529
x1 = 0.4713 | 0.543
x1 = 0.5272 | 0.568
x1 = 0.6106 | 0.61
x1 = 0.6939 | 0.653
x1 = 0.7237 | 0.668
x1 = 0.8091 | 0.714
x1 = 0.9254 | 0.775

ClC(Cl)=C(Cl)Cl + Clc1ccccc1
303.15 K, 101 kPa
Details | viscosity [mPa·s]
x1 = 0.1416 | 0.716
x1 = 0.2048 | 0.717
x1 = 0.2727 | 0.718
x1 = 0.3562 | 0.72
x1 = 0.4651 | 0.728
x1 = 0.5412 | 0.739
x1 = 0.6279 | 0.751
x1 = 0.718 | 0.766
x1 = 0.8422 | 0.786
x1 = 0.9302 | 0.802
